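Step 1: Grow cells in 96-well plates. Step 2: Expose to compound for 48 hours at 5 concentrations. Step 3: Interpolate endpoints linearly; if unreached, use highest concentration. GI50: concentration for 50% inhibition of growth. TGI: total growth inhibition.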
Assays:
Test in all cases: growth of human tumour cells (NCI), 48 h
786-0 renal = system: 786-0 renal
A498 renal = system: A498 renal
A549 NSCLC = system: A549 NSCLC
ACHN renal = system: ACHN renal
BT-549 breast = system: BT-549 breast
CAKI-1 renal = system: CAKI-1 renal
CCRF-CEM leukemia = system: CCRF-CEM leukemia
COLO 205 colon = system: COLO 205 colon
DU-145 prostate = system: DU-145 prostate
EKVX NSCLC = system: EKVX NSCLC
HCC-2998 colon = system: HCC-2998 colon
HCT-116 colon = system: HCT-116 colon
HCT-15 colon = system: HCT-15 colon
HL-60(TB) leukemia = system: HL-60(TB) leukemia
HOP-62 NSCLC = system: HOP-62 NSCLC
HOP-92 NSCLC = system: HOP-92 NSCLC
HS 578T breast = system: HS 578T breast
HT29 colon = system: HT29 colon
IGROV1 ovarian = system: IGROV1 ovarian
KM12 colon = system: KM12 colon
LOX IMVI melanoma = system: LOX IMVI melanoma
M14 melanoma = system: M14 melanoma
MALME-3M melanoma = system: MALME-3M melanoma
MCF7 breast = system: MCF7 breast
MDA-MB-231 breast = system: MDA-MB-231 breast
MDA-MB-435 = system: MDA-MB-435
MOLT-4 leukemia = system: MOLT-4 leukemia
NCI-H226 lung = system: NCI-H226 lung
NCI-H23 lung = system: NCI-H23 lung
NCI-H460 lung = system: NCI-H460 lung
NCI-H522 lung = system: NCI-H522 lung
NCI/ADR-RES ovarian = system: NCI/ADR-RES ovarian
OVCAR-3 ovarian = system: OVCAR-3 ovarian
OVCAR-4 ovarian = system: OVCAR-4 ovarian
OVCAR-5 ovarian = system: OVCAR-5 ovarian
OVCAR-8 ovarian = system: OVCAR-8 ovarian
PC-3 prostate = system: PC-3 prostate
RPMI-8226 leukemia = system: RPMI-8226 leukemia
RXF 393 renal = system: RXF 393 renal
SF-268 CNS = system: SF-268 CNS
SF-295 CNS = system: SF-295 CNS
SF-539 CNS = system: SF-539 CNS
SK-MEL-2 melanoma = system: SK-MEL-2 melanoma
SK-MEL-28 melanoma = system: SK-MEL-28 melanoma
SK-MEL-5 melanoma = system: SK-MEL-5 melanoma
SK-OV-3 ovarian = system: SK-OV-3 ovarian
SN12C renal = system: SN12C renal
SNB-19 CNS = system: SNB-19 CNS
SNB-75 CNS = system: SNB-75 CNS
SR leukemia = system: SR leukemia
SW-620 colon = system: SW-620 colon
T-47D breast = system: T-47D breast
TK-10 renal = system: TK-10 renal
U251 CNS = system: U251 CNS
UACC-257 melanoma = system: UACC-257 melanoma
UACC-62 melanoma = system: UACC-62 melanoma
UO-31 renal = system: UO-31 renal
K-562 leukemia = system: K-562 leukemia
MDA-N = system: MDA-N

Work on `Nc1ccc(C2=NNC(=O)Cc3cc4c(cc32)OCCO4)cc1Cl` yielded a GI50 (786-0 renal) of 6.51 µM, a TGI (786-0 renal) greater than 50 µM and a GI50 (A498 renal) of 0.944 µM. The TGI (A498 renal) was 19.9 µM, the GI50 (A549 NSCLC) was 2.95 µM and the TGI (A549 NSCLC) was greater than 50 µM. For the same compound, the GI50 (ACHN renal) was 18.8 µM, the TGI (ACHN renal) was greater than 50 µM and the GI50 (BT-549 breast) was 5.99 µM. For the same compound, the TGI (BT-549 breast) was greater than 50 µM, the GI50 (CAKI-1 renal) was 1.99 µM and the TGI (CAKI-1 renal) was greater than 50 µM. It also gave a GI50 (CCRF-CEM leukemia) of 3.47 µM, a TGI (CCRF-CEM leukemia) greater than 50 µM and a GI50 (COLO 205 colon) of 2.63 µM. It also gave a TGI (COLO 205 colon) of 17.5 µM, a GI50 (DU-145 prostate) of 11.4 µM and a TGI (DU-145 prostate) greater than 50 µM. The GI50 (EKVX NSCLC) was 12.7 µM, the TGI (EKVX NSCLC) was greater than 50 µM and the GI50 (HCC-2998 colon) was 3.73 µM. The TGI (HCC-2998 colon) was greater than 50 µM, the GI50 (HCT-116 colon) was 2.64 µM and the TGI (HCT-116 colon) was greater than 50 µM. The GI50 (HCT-15 colon) was 2.49 µM, the TGI (HCT-15 colon) was greater than 50 µM and the GI50 (HL-60(TB) leukemia) was 1.72 µM. The TGI (HL-60(TB) leukemia) was 12.3 µM, the GI50 (HOP-62 NSCLC) was 5.12 µM and the TGI (HOP-62 NSCLC) was greater than 50 µM. The GI50 (HOP-92 NSCLC) was 4.89 µM, the TGI (HOP-92 NSCLC) was 49 µM and the GI50 (HS 578T breast) was 4.33 µM. For the same compound, the TGI (HS 578T breast) was 25 µM, the GI50 (HT29 colon) was 2.11 µM and the TGI (HT29 colon) was greater than 50 µM. The GI50 (IGROV1 ovarian) was 4.54 µM, the TGI (IGROV1 ovarian) was greater than 50 µM and the GI50 (KM12 colon) was 1.74 µM. For the same compound, the TGI (KM12 colon) was greater than 50 µM, the GI50 (LOX IMVI melanoma) was 2.95 µM and the TGI (LOX IMVI melanoma) was greater than 50 µM. It also gave a GI50 (M14 melanoma) of 2.3 µM, a TGI (M14 melanoma) greater than 50 µM and a GI50 (MALME-3M melanoma) of 4.13 µM. For the same compound, the TGI (MALME-3M melanoma) was greater than 50 µM, the GI50 (MCF7 breast) was 1.99 µM and the TGI (MCF7 breast) was greater than 50 µM. It also gave a GI50 (MDA-MB-231 breast) of 27.1 µM, a TGI (MDA-MB-231 breast) greater than 50 µM and a GI50 (MDA-MB-435) of 0.886 µM. For the same compound, the TGI (MDA-MB-435) was 4.18 µM, the GI50 (MOLT-4 leukemia) was 3.05 µM and the TGI (MOLT-4 leukemia) was greater than 50 µM. The GI50 (NCI-H226 lung) was 8.12 µM, the TGI (NCI-H226 lung) was greater than 50 µM and the GI50 (NCI-H23 lung) was 5.28 µM. For the same compound, the TGI (NCI-H23 lung) was greater than 50 µM, the GI50 (NCI-H460 lung) was 1.94 µM and the TGI (NCI-H460 lung) was greater than 50 µM. For the same compound, the GI50 (NCI-H522 lung) was 2.02 µM, the TGI (NCI-H522 lung) was 23.5 µM and the GI50 (NCI/ADR-RES ovarian) was 1.3 µM. The TGI (NCI/ADR-RES ovarian) was 7.32 µM, the GI50 (OVCAR-3 ovarian) was 1.51 µM and the TGI (OVCAR-3 ovarian) was 6.47 µM. For the same compound, the GI50 (OVCAR-4 ovarian) was 35.3 µM, the TGI (OVCAR-4 ovarian) was greater than 50 µM and the GI50 (OVCAR-5 ovarian) was 7.96 µM. The TGI (OVCAR-5 ovarian) was greater than 50 µM, the GI50 (OVCAR-8 ovarian) was 8.03 µM and the TGI (OVCAR-8 ovarian) was greater than 50 µM. The GI50 (PC-3 prostate) was 7.94 µM, the TGI (PC-3 prostate) was greater than 50 µM and the GI50 (RPMI-8226 leukemia) was 7.56 µM. It also gave a TGI (RPMI-8226 leukemia) greater than 50 µM, a GI50 (RXF 393 renal) of 5.27 µM and a TGI (RXF 393 renal) of 19.3 µM. The GI50 (SF-268 CNS) was 8.77 µM, the TGI (SF-268 CNS) was greater than 50 µM and the GI50 (SF-295 CNS) was 2.49 µM. The TGI (SF-295 CNS) was greater than 50 µM, the GI50 (SF-539 CNS) was 4.15 µM and the TGI (SF-539 CNS) was 16.8 µM. For the same compound, the GI50 (SK-MEL-2 melanoma) was 2.81 µM, the TGI (SK-MEL-2 melanoma) was 44.6 µM and the GI50 (SK-MEL-28 melanoma) was 9.1 µM. For the same compound, the TGI (SK-MEL-28 melanoma) was greater than 50 µM, the GI50 (SK-MEL-5 melanoma) was 2.28 µM and the TGI (SK-MEL-5 melanoma) was greater than 50 µM. For the same compound, the GI50 (SK-OV-3 ovarian) was 8.1 µM, the TGI (SK-OV-3 ovarian) was greater than 50 µM and the GI50 (SN12C renal) was 14.9 µM. For the same compound, the TGI (SN12C renal) was greater than 50 µM, the GI50 (SNB-19 CNS) was 8.19 µM and the TGI (SNB-19 CNS) was greater than 50 µM. The GI50 (SNB-75 CNS) was 2 µM, the TGI (SNB-75 CNS) was 27.9 µM and the GI50 (SR leukemia) was 1.37 µM. It also gave a TGI (SR leukemia) greater than 50 µM, a GI50 (SW-620 colon) of 2.01 µM and a TGI (SW-620 colon) greater than 50 µM. For the same compound, the GI50 (T-47D breast) was 5.42 µM, the TGI (T-47D breast) was greater than 50 µM and the GI50 (TK-10 renal) was 18.9 µM. The TGI (TK-10 renal) was greater than 50 µM, the GI50 (U251 CNS) was 3.68 µM and the TGI (U251 CNS) was greater than 50 µM. For the same compound, the GI50 (UACC-257 melanoma) was 13.3 µM, the TGI (UACC-257 melanoma) was greater than 50 µM and the GI50 (UACC-62 melanoma) was 4.42 µM. It also gave a TGI (UACC-62 melanoma) greater than 50 µM, a GI50 (UO-31 renal) of 16.8 µM and a TGI (UO-31 renal) greater than 50 µM.
Work on `Nc1ncnc2c1[nH]c(=O)n2-c1ccccc1` yielded a TGI (786-0 renal) greater than 100 µM, a TGI (A498 renal) greater than 100 µM and a TGI (A549 NSCLC) greater than 100 µM. The TGI (ACHN renal) was greater than 100 µM, the TGI (BT-549 breast) was greater than 100 µM and the TGI (CAKI-1 renal) was greater than 100 µM. For the same compound, the TGI (COLO 205 colon) was greater than 100 µM, the TGI (EKVX NSCLC) was greater than 100 µM and the TGI (HCC-2998 colon) was greater than 100 µM. For the same compound, the TGI (HCT-116 colon) was greater than 100 µM, the TGI (HCT-15 colon) was greater than 100 µM and the TGI (HL-60(TB) leukemia) was greater than 100 µM. It also gave a TGI (HOP-62 NSCLC) greater than 100 µM, a TGI (HOP-92 NSCLC) greater than 100 µM and a TGI (HS 578T breast) greater than 100 µM. For the same compound, the TGI (HT29 colon) was greater than 100 µM, the TGI (IGROV1 ovarian) was greater than 100 µM and the TGI (K-562 leukemia) was greater than 100 µM. For the same compound, the TGI (LOX IMVI melanoma) was greater than 100 µM, the TGI (M14 melanoma) was greater than 100 µM and the TGI (MALME-3M melanoma) was greater than 100 µM. The TGI (MCF7 breast) was greater than 100 µM, the TGI (MDA-MB-435) was greater than 100 µM and the TGI (MDA-N) was greater than 100 µM. For the same compound, the TGI (MOLT-4 leukemia) was greater than 100 µM, the TGI (NCI-H23 lung) was greater than 100 µM and the TGI (NCI-H460 lung) was greater than 100 µM. It also gave a TGI (NCI/ADR-RES ovarian) greater than 100 µM, a TGI (OVCAR-3 ovarian) greater than 100 µM and a TGI (OVCAR-4 ovarian) greater than 100 µM. It also gave a TGI (OVCAR-5 ovarian) greater than 100 µM, a TGI (OVCAR-8 ovarian) greater than 100 µM and a TGI (PC-3 prostate) greater than 100 µM. The TGI (RPMI-8226 leukemia) was greater than 100 µM, the TGI (SF-268 CNS) was greater than 100 µM and the TGI (SF-295 CNS) was greater than 100 µM. It also gave a TGI (SF-539 CNS) greater than 100 µM, a TGI (SK-MEL-2 melanoma) greater than 100 µM and a TGI (SK-MEL-28 melanoma) greater than 100 µM. The TGI (SK-MEL-5 melanoma) was greater than 100 µM, the TGI (SK-OV-3 ovarian) was greater than 100 µM and the TGI (SN12C renal) was greater than 100 µM. For the same compound, the TGI (SNB-19 CNS) was greater than 100 µM, the TGI (SR leukemia) was greater than 100 µM and the TGI (SW-620 colon) was greater than 100 µM. For the same compound, the TGI (TK-10 renal) was greater than 100 µM, the TGI (UACC-257 melanoma) was greater than 100 µM and the TGI (UACC-62 melanoma) was greater than 100 µM. It also gave a TGI (UO-31 renal) greater than 100 µM.
